# The supplement of paper PMC11061612
# Assays:
# EW-1 (Ewing's Sarcoma) = experiment: Bliss excess, mean over the matrix (fraction); higher = more synergy
# How it was run: (§1)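 Cell lines in DMEM/F12 or RPMI with 10% FBS were plated in 1536-well plates, held 24 hours at 37°C, 5% CO2, then given two-drug dose matrices for 72 hours (DMSO typically 0.2%). Viability was read by CellTiter-Glo 2.0 luminescence and scaled as inhibition from 0 (vehicle wells) to 1 (blank wells). Combination Emax is the second-highest inhibition in the matrix; Bliss excess is observed combination effect minus expected EA + EB − EA·EB, EA and EB being single-agent effects.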
# [1] = tested on: G-401 (Other Solid Carcinomas); experiment: as above
# How it was run: as §1
# [2] = tested on: HCC1500 (Breast Carcinoma); experiment: as above
# How it was run: as §1
# [3] = tested on: HCC2998 (Colorectal Carcinoma); experiment: as above
# How it was run: as §1
# Hey (Ovarian Carcinoma) = experiment: as above
# How it was run: as §1
# [4] = tested on: KOPN-8 (B-Lymphoblastic Leukemia); experiment: as above
# How it was run: as §1
# [5] = tested on: LC-1-sq (Squamous Cell Lung Carcinoma); experiment: as above
# How it was run: as §1
# [6] = tested on: NCI-H1092 (Small Cell Lung Carcinoma); experiment: as above
# How it was run: as §1
# [7] = tested on: NCI-H1838 (Lung Adenocarcinoma); experiment: as above
# How it was run: as §1
# [8] = tested on: NCI-H2122 (Lung Adenocarcinoma); experiment: as above
# How it was run: as §1
# [9] = tested on: NCI-H650 (Lung Adenocarcinoma); experiment: as above
# How it was run: as §1
# COLO-679 (Melanoma) = experiment: combination Emax (second highest fraction inhibited in the dose matrix, 72 h); higher = more inhibition; extreme values may be limits of the assay
# How it was run: as §1
# [10] = tested on: Ca-Ski (Cervical Carcinoma); experiment: as above
# How it was run: as §1
# [11] = tested on: MDA-MB-453 (Breast Carcinoma); experiment: as above
# How it was run: as §1
# [12] = tested on: ME-180 (Cervical Carcinoma); experiment: as above
# How it was run: as §1
# [13] = tested on: ML-2 (Acute Myeloid Leukemia); experiment: as above
# How it was run: as §1
# [14] = tested on: MOG-G-UVW (Low Grade Glioma); experiment: as above
# How it was run: as §1
# [15] = tested on: MOLT-4 (T-Lymphoblastic Leukemia); experiment: as above
# How it was run: as §1
# [16] = tested on: NCI-H1355 (Lung Adenocarcinoma); experiment: as above
# How it was run: as §1
# [17] = tested on: SW872 (Other Solid Carcinomas); experiment: as above
# How it was run: as §1
# 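Throughout, for Bliss excess, mean over the matrix: after 72 h of two-drug dosing.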
Structure (SMILES),Bliss excess (EW-1 (Ewing's Sarcoma)),Bliss excess [1],Bliss excess [2],Bliss excess [3],Bliss excess (Hey (Ovarian Carcinoma)),Bliss excess [4],Bliss excess [5],Bliss excess [6],Bliss excess [7],Bliss excess [8],Bliss excess [9],combination Emax (COLO-679 (Melanoma)),combination Emax [10],combination Emax [11],combination Emax [12],combination Emax [13],combination Emax [14],combination Emax [15],combination Emax [16],combination Emax [17]
"Cc1c2c(nn1C)CSCc1cc(n(C)n1)CSc1cc(c3ccccc3c1)OCCCc1c(C(=O)O)n(C)c3c-2c(Cl)ccc13 [AZD5991] + Cn1cnc2c(F)c(Nc3ccc(Br)cc3Cl)c(C(=O)NOCCO)cc21 [Selumetinib] (first compound max 1 µM, 7x7, partner max 3 µM)",-0.0044,-0.0039,0.0093,0.0417,-0.0033,0.0258,0.0393,-0.03,0.003,0.028,0.0222,0.832,0.633,0.289,0.26,1,0.302,0.339,0.316,0.288
"Cc1cc2ncnn2cc1Nc1ncc2c(n1)n(C1CCOCC1)c(=O)n2C [AZD7648] + CN(C)CCCOc1ccc(-c2ccc3ncc4c(c3c2)n(C2CCOCC2)c(=O)n4C)cn1 [AZD0156] (first compound max 10 µM, 7x7, partner max 1 µM)",0.0734,0.0335,0.0414,0.0329,0.0367,0.0351,0.03,-0.0312,0.0203,0.0426,0.0061,0.2,0.296,0.325,0.326,0.374,0.379,0.246,0.482,0.264
"COc1cc2ncnc(Nc3ccc(F)c(Cl)c3)c2cc1OCCCN1CCOCC1 [Gefitinib] + CC(C)n1c(=O)n(C)c2cnc3cc(F)c(-c4ccc(OCCCN5CCCCC5)nc4)cc3c21 [AZD1390] (first compound max 10 µM, 7x7, partner max 0.3 µM)",-0.064,-0.0446,-0.0338,-0.0541,-0.0573,-0.0725,-0.0754,-0.0528,-0.103,-0.0508,-0.0791,0.0902,0.292,0.204,0.42,0.168,0.115,0.373,0.133,0.131
